# Assay results from US12522877B2, “Early detection of drug-resistant mycobacterium tuberculosis” (The Translational Genomics Research Institute, priority 2020, dated 2026).
# Entries after “also recorded” stand apart in the source; their conditions may differ.
# What was measured:
# [1] = system: M. tuberculosis isolates; design: species or system Mycobacterium tuberculosis
# [2] = system: M. tuberculosis isolates; assay type: cell-based, Mycobacterium tuberculosis
# [3] = system: M. tuberculosis isolates; assay type: cell-based, Mycobacterium tuberculosis; remark: listed apart in the source
Structure (SMILES),GenoType MTBDRplus [1],Genotype MTBDRplus result [1],patients phenotypically and genotypically resistant to bedaquiline [2],Phenotypic susceptibility to bedaquiline [3]
NNC(=O)c1ccncc1 [Isoniazid],R,low-level isoniazid resistance,–,–
CO[C@H]1/C=C/O[C@@]2(C)Oc3c(C)c(O)c4c(O)c(c(/C=N/N5CCN(C)CC5)c(O)c4c3C2=O)NC(=O)/C(C)=C\C=C\[C@H](C)[C@H](O)[C@@H](C)[C@@H](O)[C@@H](C)[C@H](OC(C)=O)[C@@H]1C [Rifampicin],R,–,–,–
COc1nc2ccc(Br)cc2cc1[C@@H](c1ccccc1)[C@@](O)(CCN(C)C)c1cccc2ccccc12 [bedaquiline],–,–,47%,phenotypically susceptible; also recorded: phenotypically resistant
